According to ChEMBL document CHEMBL1201862, “PubChem BioAssay data set” (2004):
Several values for one entry are separate records, joined by “and”; a condition that tells them apart may be missing. Equal entries are not always repeated. Activity calls are given as the source filed them.

Experiments:
[1] = molecular target: Delta-type opioid receptor (Homo sapiens, UniProt P41143); assay: Counterscreen for agonists of heterodimerization of the mu 1 (OPRM1) and delta 1 (OPRD1) opioid receptors: Luminescence-based cell-based high throughput dose response assay to identify agonists of OPRD1 homodimerization. [Related pubchem assays (depositor defined):AID504326, AID504355, AID504692, AID504904, AID504905]; type: functional
Chain of Delta-type opioid receptor (P41143 whole entry): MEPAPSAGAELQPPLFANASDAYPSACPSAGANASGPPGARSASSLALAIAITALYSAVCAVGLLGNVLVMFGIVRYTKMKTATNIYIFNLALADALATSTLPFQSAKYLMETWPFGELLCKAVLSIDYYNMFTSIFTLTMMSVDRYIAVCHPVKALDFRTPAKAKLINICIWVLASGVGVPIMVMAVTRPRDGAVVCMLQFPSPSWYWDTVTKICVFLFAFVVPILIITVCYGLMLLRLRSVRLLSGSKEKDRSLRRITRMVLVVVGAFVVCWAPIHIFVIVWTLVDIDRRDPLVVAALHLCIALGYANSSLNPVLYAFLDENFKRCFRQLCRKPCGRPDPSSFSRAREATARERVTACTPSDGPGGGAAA

Mu-type opioid receptor = Mu-type opioid receptor (Homo sapiens, UniProt P35372); assay: Counterscreen for agonists of heterodimerization of the mu 1 (OPRM1) and delta 1 (OPRD1) opioid receptors: Luminescence-based cell-based high throughput dose response assay to identify agonists of OPRM1 homodimerization.; type: functional;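 further: U2OS cells expressing OPRM1 and beta-arrestin as split beta-galactosidase partners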
Chain of Mu-type opioid receptor (P35372 whole entry): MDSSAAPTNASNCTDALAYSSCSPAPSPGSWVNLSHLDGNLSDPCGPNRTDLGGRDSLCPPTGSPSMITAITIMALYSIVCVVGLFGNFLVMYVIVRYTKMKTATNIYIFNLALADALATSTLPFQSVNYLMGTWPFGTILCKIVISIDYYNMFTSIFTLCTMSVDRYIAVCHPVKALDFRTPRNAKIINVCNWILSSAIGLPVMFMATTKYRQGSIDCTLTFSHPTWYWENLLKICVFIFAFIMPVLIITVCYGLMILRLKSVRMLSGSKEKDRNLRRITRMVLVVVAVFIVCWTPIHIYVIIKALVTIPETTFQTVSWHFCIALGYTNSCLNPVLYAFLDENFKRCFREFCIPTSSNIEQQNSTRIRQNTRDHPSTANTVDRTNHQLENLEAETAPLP

[2] = molecular target: 5-hydroxytryptamine receptor 5A (Homo sapiens, UniProt P47898); assay: Counterscreen for agonists of OPRM1-OPRD1 heterodimerization: luminescence-based cell-based high throughput dose response assay to identify agonists of 5-hydroxytryptamine (serotonin) 5A receptor (HTR5A). [Related pubchem assays (depositor defined):AID504326, AID504355, AID504692, AID504904, AID504905]; type: functional
Chain of 5-hydroxytryptamine receptor 5A (P47898 whole entry): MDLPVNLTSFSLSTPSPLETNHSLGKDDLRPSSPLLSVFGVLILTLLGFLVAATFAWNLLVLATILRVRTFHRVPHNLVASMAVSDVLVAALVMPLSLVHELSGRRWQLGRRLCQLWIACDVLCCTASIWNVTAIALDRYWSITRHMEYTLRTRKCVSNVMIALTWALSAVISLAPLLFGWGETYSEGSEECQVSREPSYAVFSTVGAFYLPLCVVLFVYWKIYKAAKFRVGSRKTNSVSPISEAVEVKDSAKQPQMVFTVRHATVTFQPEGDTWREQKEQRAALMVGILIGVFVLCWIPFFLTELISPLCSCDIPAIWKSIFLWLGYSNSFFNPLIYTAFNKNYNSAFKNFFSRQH

A-375 [3] = assay: MITF: Counter assay: A375 proliferation Measured in Cell-Based System Using Plate Reader - 2084-03_Inhibitor_Dose_DryPowder_Activity. [Related pubchem assays (depositor defined):AID488944]; type: functional; details: Homo sapiens
A-375 [4] = assay: A375 melanoma cell viability reduction, dose response, counter-screen for MITF modulator project, cherry-pick samples, set 2 (AID 540335); type: functional, cell-based; details: Homo sapiens
[5] = molecular target: T1, Heat shock factor protein 1 (Mus musculus, UniProt P38532); assay: inhibition of MG132-induced HSE-luciferase signal, confirmation, cell-based, NIH3T3, luminescence, dose retest (AID 2382); type: functional;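 further: NIH3T3 fibroblasts with HSF1-driven luciferase reporter stressed by proteasome inhibitor MG132; luminescence from HSF1-driven luciferase expression after 8 hours of MG132 stress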
T1 sequence (P38532 whole entry): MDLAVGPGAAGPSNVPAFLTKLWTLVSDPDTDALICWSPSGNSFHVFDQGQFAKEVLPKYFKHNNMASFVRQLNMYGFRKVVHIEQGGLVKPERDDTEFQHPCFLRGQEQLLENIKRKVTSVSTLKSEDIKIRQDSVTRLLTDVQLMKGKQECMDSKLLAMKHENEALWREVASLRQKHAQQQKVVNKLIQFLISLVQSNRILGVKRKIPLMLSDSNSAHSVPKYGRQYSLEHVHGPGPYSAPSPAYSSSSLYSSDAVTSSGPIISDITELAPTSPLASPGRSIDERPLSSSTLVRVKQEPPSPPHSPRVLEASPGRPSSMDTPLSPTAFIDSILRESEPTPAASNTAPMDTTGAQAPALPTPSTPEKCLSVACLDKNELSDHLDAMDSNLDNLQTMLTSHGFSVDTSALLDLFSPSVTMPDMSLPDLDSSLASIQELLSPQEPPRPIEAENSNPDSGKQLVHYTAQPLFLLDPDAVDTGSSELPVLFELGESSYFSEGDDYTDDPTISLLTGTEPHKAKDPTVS

[6] = inhibitors of SNCA 5'UTR-driven reporter translation, confirmation, H4 neuroglioma cells, luminescence (AID 1988); type: functional, cell-based
[7] = molecular target: Cyclin-dependent kinase 5/CDK5 activator 1 (Homo sapiens, UniProt Q00535); assay: CDK5/p35 kinase inhibitors, dose response, biochemical, cherry-picked samples, set 2 (AID 504545)
[8] = reduction of endogenous Shn3 mRNA, dose response, qPCR, Clone20 cells, cherry-pick (AID 743415); type: functional, cell-based
[9] = Shn3 3'UTR reporter inhibitors, dose response, cell-based, Clone20 osteoblasts, firefly luciferase, cherry-picked (AID 624132); type: functional;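 further: firefly luciferase luminescence from reporter carrying the Shn3 3'UTR in osteoblasts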
[10] = off-target signal loss in HeLa-CEM21 co-culture – HeLa F-luc CTL cells, cherry-picked, counter-screen for HIV-1 Env fusion inhibitor project, dose response (AID 652040); type: functional, cell-based;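 further: potency for signal decrease marking cytotoxic or nonspecific inhibition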
Jurkat = assay: antigen receptor-induced NF-kB inhibitors, dose response, Jurkat, luciferase reporter, luminescence, B- and T-cell (AID 489004); type: functional, cell-based; details: Homo sapiens;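 further: NF-kB luciferase reporter Jurkat cells stimulated with PMA plus ionomycin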
[11] = inhibitors of HIV Env-driven cell fusion, dose response, cherry-pick (AID 652057); type: functional, cell-based
[12] = Luminescence Cell-Based Dose Response HTS to Identify Inhibitors of 5'UTR Stem-Loop Driven Prion Protein mRNA Translation in H4 Neuroglioblastoma Cells. [Related pubchem assays: 1827 (Project Summary), 1813 (Primary HTS)]; type: functional
[13] = inhibitors of firefly luciferase expression or activity, dose response, H4 neuroglioma cells, luminescence (AID 1990); type: functional, cell-based
[14] = reduction of Shn3 3'UTR firefly luciferase signal, dose response, Schnurri-3 inhibitor project, cell-based, Clone20 osteoblasts, cherry-pick, set 2 (AID 720490); type: functional;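 further: actives lower the luminescence signal as inhibitors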
[15] = cytotoxicity in HEK-293T NF-kB-Luc cells, dose response, cytotoxicity control for B/T-cell NF-kB inhibitor project, cell-based, uHTS hits (AID 489019); type: functional;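 further: IC50 reflects cytotoxicity as loss of cell viability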
[16] = ZM109 Env clade C HIV-1 fusion inhibitors, dose response, HeLa effector, CEM target cells, luciferase, cherry-pick (AID 652058); type: functional, cell-based
[17] = molecular target: Latent membrane protein 1 (Human herpesvirus 4 (strain B95-8), UniProt P03230); assay: TES1-eGFP NF-kB reporter inhibition versus Tet-On dsRED, dose response, selectivity assay for LMP1 NF-kB inhibitor project, imaging, HEK293T, dual-color eGFP/dsRED, cherry-picks (AID 588398); type: functional, cell-based
Chain of Latent membrane protein 1 (P03230 whole entry, the tested form may be a part): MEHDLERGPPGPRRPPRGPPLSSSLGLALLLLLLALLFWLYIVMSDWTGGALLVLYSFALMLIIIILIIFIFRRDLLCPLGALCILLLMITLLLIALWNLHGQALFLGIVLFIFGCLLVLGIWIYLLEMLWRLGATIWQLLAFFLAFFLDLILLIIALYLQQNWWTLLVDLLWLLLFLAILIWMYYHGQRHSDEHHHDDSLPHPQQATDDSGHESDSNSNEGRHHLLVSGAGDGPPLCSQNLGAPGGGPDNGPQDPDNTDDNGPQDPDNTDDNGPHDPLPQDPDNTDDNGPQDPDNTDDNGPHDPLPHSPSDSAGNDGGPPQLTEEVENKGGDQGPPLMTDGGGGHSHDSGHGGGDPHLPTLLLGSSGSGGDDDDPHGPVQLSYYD

[18] = CEM21 lymphoblast cell cytotoxicity, dose response, cytotoxicity control for viral fusion inhibitor project, CellTiter-Glo luminescence, cherry-picked (AID 652042); type: functional, cell-based;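 further: potency for signal decrease meaning cytotoxicity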
[19] = inhibitors of clade B AD8 Env fusion, dose response, cell-based, cherry-pick (AID 652062); type: functional;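 further: luciferase signal from cell-cell fusion driven by HIV-1 clade B AD8 Env; potency is for inhibitors of fusion seen as a drop in luminescence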
Paired box protein Pax-8 = Paired box protein Pax-8 (Homo sapiens, UniProt Q06710); assay: inhibitors of PAX8-driven TPO luciferase reporter, dose response, RMG-I cells, cherry-pick (AID 687027); type: functional, cell-based;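 further: luciferase reporter driven by Pax8 target thyroperoxidase promoter measured by SteadyGlo luminescence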
Chain of Paired box protein Pax-8 (Q06710 whole entry): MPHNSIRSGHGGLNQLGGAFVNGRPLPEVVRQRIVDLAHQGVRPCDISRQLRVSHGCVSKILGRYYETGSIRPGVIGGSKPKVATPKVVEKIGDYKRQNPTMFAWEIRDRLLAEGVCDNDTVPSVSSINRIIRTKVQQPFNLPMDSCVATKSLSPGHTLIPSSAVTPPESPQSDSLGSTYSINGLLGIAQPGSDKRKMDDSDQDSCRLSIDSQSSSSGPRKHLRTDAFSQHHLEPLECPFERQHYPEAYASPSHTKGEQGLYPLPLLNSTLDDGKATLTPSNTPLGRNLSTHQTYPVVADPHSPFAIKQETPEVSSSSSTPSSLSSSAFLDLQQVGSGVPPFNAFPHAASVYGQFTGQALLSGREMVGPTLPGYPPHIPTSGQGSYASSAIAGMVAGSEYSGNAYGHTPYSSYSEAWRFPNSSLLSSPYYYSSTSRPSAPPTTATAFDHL

[20] = NIH-3T3 fibroblast cytotoxicity, dose response, cytotoxicity control, cell-based, fluorescence, Alamar Blue, secondary assay (AID 2327); type: functional;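 further: NIH-3T3 mouse fibroblasts cultured with fluconazole at 8 µg/mL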
[21] = C. albicans growth with fluconazole, confirmation, fluorescence, retest (AID 2467); type: functional, cell-based
[22] = test system: Streptococcus sp. 'group A'; assay: growth inhibition of control SK(-) GAS strain, dose response, counter-screen for streptokinase expression inhibitor project, luminescence, kanamycin, BacTiterGlo, confirmation (AID 1900); type: functional, organism-based
Albumin = Albumin (Bos taurus, UniProt P02769); assay: Counterscreen for inhibitors of T-cell receptor (TCR)-CD3 interaction: Fluorescence-based biochemical high throughput dose response assay to identify inhibitors of T-cell receptor (TCR)-CD3 interaction using a TAMRA-labeled BSA probe.; type: functional
Streptococcus = assay: Group A Streptococcus viability loss, dose response, counter-screen for streptokinase expression inhibitor project, luminescence, BacTiterGlo (AID 1915); type: functional, organism-based;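 further: potency for reduction of bacterial viability or growth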
[23] = molecular target: Serine/threonine-protein phosphatase (Candida dubliniensis (strain CD36 / CBS 7987 / NCPF 3949 / NRRLY-17841) (Yeast), UniProt B9W6M3); assay: calcineurin pathway inhibitors in yeast reporter, dose response, S. cerevisiae, CDRE-lacZ, luminescence, secondary (AID 2388); type: functional, cell-based;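 further: yeast reporter cells carrying a calcineurin-responsive lacZ construct stimulated with calcium chloride; luminescent beta-galactosidase reporter signal in whole cells rather than isolated phosphatase activity; potency for inhibition where a drop in reporter signal means calcineurin blockade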
Chain of Serine/threonine-protein phosphatase (B9W6M3 whole entry): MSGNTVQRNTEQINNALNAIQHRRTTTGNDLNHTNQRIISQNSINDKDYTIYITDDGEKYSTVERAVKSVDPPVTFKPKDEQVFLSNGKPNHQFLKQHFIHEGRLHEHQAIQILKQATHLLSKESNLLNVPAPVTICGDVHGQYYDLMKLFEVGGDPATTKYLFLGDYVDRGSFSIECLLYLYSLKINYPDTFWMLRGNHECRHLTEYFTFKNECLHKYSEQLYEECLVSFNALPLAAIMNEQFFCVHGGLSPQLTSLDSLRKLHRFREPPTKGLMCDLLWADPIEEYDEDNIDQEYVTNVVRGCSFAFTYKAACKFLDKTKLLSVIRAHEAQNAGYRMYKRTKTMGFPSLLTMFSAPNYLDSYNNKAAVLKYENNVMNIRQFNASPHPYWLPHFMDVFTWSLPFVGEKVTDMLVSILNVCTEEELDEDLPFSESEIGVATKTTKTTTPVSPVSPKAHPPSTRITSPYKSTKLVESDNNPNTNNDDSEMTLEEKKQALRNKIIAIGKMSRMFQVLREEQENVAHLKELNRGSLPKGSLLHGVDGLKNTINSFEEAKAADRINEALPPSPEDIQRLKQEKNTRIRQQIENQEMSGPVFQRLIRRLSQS

[24] = molecular target: ATP-dependent molecular chaperone HSP82 (Candida albicans (strain WO-1) (Yeast), UniProt C4YTQ8); assay: loss of DOC-induced GRE-beta-galactosidase reporter signal, dose response, Hsp90 inhibitor project, S. cerevisiae, luminescence (AID 2400); type: functional, cell-based;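 further: beta-galactosidase luminescence from glucocorticoid response element reporter as proxy for Hsp90 function; inhibitor potency where signal loss means Hsp90 inhibition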
Chain of ATP-dependent molecular chaperone HSP82 (C4YTQ8 whole entry): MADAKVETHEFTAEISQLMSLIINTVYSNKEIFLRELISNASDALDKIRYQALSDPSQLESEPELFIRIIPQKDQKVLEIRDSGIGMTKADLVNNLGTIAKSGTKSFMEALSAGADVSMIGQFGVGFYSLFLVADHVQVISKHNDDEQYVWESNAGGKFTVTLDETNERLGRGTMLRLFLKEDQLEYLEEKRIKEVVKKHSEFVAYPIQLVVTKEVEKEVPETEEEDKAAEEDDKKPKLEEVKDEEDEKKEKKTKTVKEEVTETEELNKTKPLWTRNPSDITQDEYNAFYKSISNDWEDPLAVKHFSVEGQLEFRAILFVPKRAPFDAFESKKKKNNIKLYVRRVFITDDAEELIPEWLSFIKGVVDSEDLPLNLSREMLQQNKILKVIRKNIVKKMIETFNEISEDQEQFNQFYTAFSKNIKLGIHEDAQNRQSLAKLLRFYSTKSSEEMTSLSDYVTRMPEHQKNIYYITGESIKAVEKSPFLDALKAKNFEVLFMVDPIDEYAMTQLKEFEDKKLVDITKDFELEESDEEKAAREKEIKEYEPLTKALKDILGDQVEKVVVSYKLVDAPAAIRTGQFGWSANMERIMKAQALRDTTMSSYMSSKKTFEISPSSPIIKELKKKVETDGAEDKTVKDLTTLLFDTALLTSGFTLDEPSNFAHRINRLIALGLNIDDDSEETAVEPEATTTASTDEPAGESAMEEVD

[25] = molecular target: Voltage-gated inwardly rectifying potassium channel KCNH2 (Homo sapiens, UniProt Q12809); details: Potency;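 further: confirmatory quantitative high-throughput screen measuring inhibition of hERG channel activity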
Chain of Voltage-gated inwardly rectifying potassium channel KCNH2 (Q12809 whole entry): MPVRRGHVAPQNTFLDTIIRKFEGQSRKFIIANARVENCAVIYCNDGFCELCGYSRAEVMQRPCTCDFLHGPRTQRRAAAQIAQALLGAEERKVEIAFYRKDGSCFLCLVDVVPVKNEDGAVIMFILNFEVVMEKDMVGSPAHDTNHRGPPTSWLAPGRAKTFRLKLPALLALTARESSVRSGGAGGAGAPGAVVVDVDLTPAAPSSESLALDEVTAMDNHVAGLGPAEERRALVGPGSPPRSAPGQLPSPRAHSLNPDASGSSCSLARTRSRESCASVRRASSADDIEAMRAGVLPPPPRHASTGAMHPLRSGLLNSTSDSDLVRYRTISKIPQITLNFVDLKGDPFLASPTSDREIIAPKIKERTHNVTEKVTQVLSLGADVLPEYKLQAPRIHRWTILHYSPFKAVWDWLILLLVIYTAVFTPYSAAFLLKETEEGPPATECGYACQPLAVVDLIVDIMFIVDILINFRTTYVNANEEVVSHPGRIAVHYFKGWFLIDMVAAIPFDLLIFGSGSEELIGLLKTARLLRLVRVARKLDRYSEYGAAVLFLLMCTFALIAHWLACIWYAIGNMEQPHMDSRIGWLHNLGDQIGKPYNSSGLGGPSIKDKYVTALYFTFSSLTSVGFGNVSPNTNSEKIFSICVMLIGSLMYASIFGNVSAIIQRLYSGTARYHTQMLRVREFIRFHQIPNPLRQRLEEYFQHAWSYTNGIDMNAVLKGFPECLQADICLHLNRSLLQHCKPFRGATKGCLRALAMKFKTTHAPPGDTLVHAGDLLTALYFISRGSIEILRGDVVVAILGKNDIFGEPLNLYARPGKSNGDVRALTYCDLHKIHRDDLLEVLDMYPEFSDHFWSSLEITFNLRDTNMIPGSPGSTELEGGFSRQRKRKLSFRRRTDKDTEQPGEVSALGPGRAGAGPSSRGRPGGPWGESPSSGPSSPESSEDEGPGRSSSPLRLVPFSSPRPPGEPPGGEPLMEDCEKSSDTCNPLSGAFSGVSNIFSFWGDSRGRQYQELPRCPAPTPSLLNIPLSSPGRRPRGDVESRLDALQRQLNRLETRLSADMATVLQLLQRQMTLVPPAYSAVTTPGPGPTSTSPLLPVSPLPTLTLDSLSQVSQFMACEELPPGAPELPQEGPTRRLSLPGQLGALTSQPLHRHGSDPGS

CCOC(=O)C1(c2ccccc2)CCN(CCC(=O)Nc2cccc(Br)c2)CC1
EC50 [1]: 56800 nM (inactive) | EC50 (Mu-type opioid receptor): 40600 nM (inactive) | EC50 [2]: > 92500 nM (inactive)

C/C(=N\Nc1cc(N2CCOCC2)ncn1)c1ccccc1
AC50 (A-375 [3]): > 35000 nM (active) | AC50 (A-375 [4]): > 35000 nM (active)

OCCCNc1nccc(-c2cc(Nc3cccc(Cl)c3)ncn2)n1
EC50 [5]: 3800 nM (active) | EC50 [6]: 1860 nM (active) | AC50 [7]: 2960 nM (active) | AC50 [8]: 5080 nM (active) | AC50 [9]: 2610 nM (active) | AC50 [10]: 1350 nM (active) | IC50 (Jurkat): 320 nM (active) | AC50 [11]: 417 nM (active) | EC50 [12]: 5300 nM (active) | EC50 [13]: 2330 nM (active) | AC50 [14]: 2710 nM (active) | IC50 [15]: > 80000 nM (inactive) | AC50 [16]: < 260 nM (active) | AC50 [17]: 535 nM (active) | AC50 [18]: 418 nM (active) | AC50 [19]: 569 nM (active) | AC50 (Paired box protein Pax-8): 2700 nM (active)

Cc1cc(C(=O)N/N=C/c2cc(Cl)cc([N+](=O)[O-])c2O)c2ccccc2n1
EC50 [20]: 34300 nM (active) | EC50 [21]: 14700 nM (active) | EC50 [22]: 1030 nM (active) | IC50 (Albumin): > 94100 nM (inactive) | EC50 (Streptococcus): 1510 nM (active) | EC50 [23]: > 180000 nM (inactive) | EC50 [24]: 17500 nM (active)

ClC(Cl)=C(c1ccc(Cl)cc1)c1ccc(Cl)cc1 [DICHLORODIPHENYLDICHLOROETHYLENE]
AC50 [25]: 15.8 µM (inconclusive) and 20 µM (inconclusive)
